Starred links: 1 amine or outer side, 2 acyl side, 3 side chain; linkers in the order of their positions; H or OH if unused. Positions of bridges follow the written chain, without caps; N, C: chain ends. Non-standard residues stand in square brackets, D forms with d. Residues, ends and D or L forms follow the SMILES beside them. Groups on a side chain read outwards from the residue. *: point of attachment. Trp(1-Me) = Cn1cc(C[C@H](N)C(=O)O)c2ccccc21; C18 diacid = O=C(O)CCCCCCCCCCCCCCCCC(=O)*; γGlu = O=C(O)[C@H](CCC(=O)[*:2])N[*:1]; Sar = CNCC(=O)O
Key:
[1] = test system: classical complement pathway; test: In vitro haemolysis assay (inhibition of classical complement pathway); format: cell-based, human; details: human serum, sensitized sheep red blood cells; Table 3, given as upper bounds; read-out: IC50, inhibition of hemolysis
Outline: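 Compound dilutions preincubated 15 min at room temperature with diluted human serum (titrated per batch for 70-90% maximal haemolysis), then antibody-sensitized sheep RBC (10^7/well) added for 30 min at 37 °C in Tris/casein buffer, pH 7.4. Stopped with EDTA; haemolysis read at 405 nm; IC50 by 4PL fit.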

[2] = Solubility test at 10 mg/mL (visual inspection and light scattering); format: physicochemical; details: for Solubility, Condition 1: Acetate pH 4; for Solubility, Condition 2: Acetate pH 5; for Solubility, Condition 3: Phosphate pH 6; for Solubility, Condition 4: Phosphate pH 7; for Solubility, Condition 5: Phosphate pH 7.5

CC[C@H](C)[C@@H]1NC(=O)[C@@H](NC(=O)[C@H](Cc2ccccc2)NC(=O)[C@H](CCC(=O)O)NC(=O)[C@H](CO)NC(C)=O)CSSC[C@@H](C(=O)N(C)CC(=O)N[C@@H](CCC(=O)O)C(N)=O)NC(=O)[C@H](CCCNC(=N)N)NC(=O)[C@H](Cc2c[nH]cn2)NC(=O)[C@H](CCC(=O)O)NC(=O)CN(C)C(=O)[C@H](Cc2c[nH]c3ccccc23)NC(=O)[C@H](CC(=O)O)NC(=O)[C@H](CCC(N)=O)NC(=O)[C@H](Cc2cn(C)c3ccccc23)NC1=O [Compound 79, Ac-SEFC(1)I[1-Me-Trp]QDW[Sar]EHRC(1)[Sar]E-NH2] (Ac-SEFCI[Trp(1-Me)]QDW[Sar]EHRC[Sar]E-NH2; disulfide 4-14)
IC50 [1]: < 100 nM | Solubility, Condition 1 [2]: − (“−” denotes lack of solubility at the given condition, as UV absorbance at 340 nm exceeds 0.1 AU and/or it is visibly turbid or contains particles) | Solubility, Condition 2 [2]: − (“−” denotes lack of solubility at the given condition, as UV absorbance at 340 nm exceeds 0.1 AU and/or it is visibly turbid or contains particles) | Solubility, Condition 3 [2]: + (“+” denotes solubility at the given condition, as determined by UV absorbance being less than 0.1 AU at 340 nm and the sample being clear when manually inspected) | Solubility, Condition 4 [2]: + (“+” denotes solubility at the given condition, as determined by UV absorbance being less than 0.1 AU at 340 nm and the sample being clear when manually inspected) | Solubility, Condition 5 [2]: + (“+” denotes solubility at the given condition, as determined by UV absorbance being less than 0.1 AU at 340 nm and the sample being clear when manually inspected)

CC[C@H](C)[C@H](NC(C)=O)C(=O)N[C@H]1CSSC[C@@H](C(=O)N[C@H](C(=O)N[C@@H](CCC(=O)O)C(=O)N[C@@H](C)C(N)=O)[C@@H](C)O)NC(=O)[C@H](CCCNC(=N)N)NC(=O)[C@H](Cc2c[nH]cn2)NC(=O)[C@H](CCC(=O)O)NC(=O)CNC(=O)[C@H](Cc2c[nH]c3ccccc23)NC(=O)[C@H](CC(=O)O)NC(=O)[C@H](CCC(N)=O)NC(=O)[C@H](Cc2c[nH]c3ccccc23)NC(=O)[C@H]([C@@H](C)CC)NC1=O [Compound 25] (Ac-ICIWQDWGEHRCTEA-NH2; disulfide 2-12)
IC50 [1]: < 100 nM | Solubility, Condition 1 [2]: + (“+” denotes solubility at the given condition, as determined by UV absorbance being less than 0.1 AU at 340 nm and the sample being clear when manually inspected) | Solubility, Condition 2 [2]: − (“−” denotes lack of solubility at the given condition, as UV absorbance at 340 nm exceeds 0.1 AU and/or it is visibly turbid or contains particles) | Solubility, Condition 3 [2]: − (“−” denotes lack of solubility at the given condition, as UV absorbance at 340 nm exceeds 0.1 AU and/or it is visibly turbid or contains particles) | Solubility, Condition 4 [2]: + (“+” denotes solubility at the given condition, as determined by UV absorbance being less than 0.1 AU at 340 nm and the sample being clear when manually inspected) | Solubility, Condition 5 [2]: + (“+” denotes solubility at the given condition, as determined by UV absorbance being less than 0.1 AU at 340 nm and the sample being clear when manually inspected)

CC[C@H](C)[C@@H]1NC(=O)[C@@H](NC(=O)[C@H](Cc2ccccc2)NC(=O)[C@H](CCC(=O)O)NC(=O)[C@H](CO)NC(C)=O)CSSC[C@@H](C(=O)N[C@H](C(=O)NCC(=O)N[C@@H](C)C(=O)N[C@@H](CCC(=O)O)C(=O)N[C@@H](CO)C(N)=O)[C@@H](C)O)NC(=O)[C@H](CCCNC(=N)N)NC(=O)[C@H](Cc2c[nH]cn2)NC(=O)[C@H](CCC(=O)O)NC(=O)CNC(=O)[C@H](Cc2c[nH]c3ccccc23)NC(=O)[C@H](CC(=O)O)NC(=O)[C@H](CCC(N)=O)NC(=O)[C@H](Cc2cn(C)c3ccccc23)NC1=O [Compound 67] (Ac-SEFCI[Trp(1-Me)]QDWGEHRCTGAES-NH2; disulfide 4-14)
IC50 [1]: < 100 nM | Solubility, Condition 1 [2]: − (“−” denotes lack of solubility at the given condition, as UV absorbance at 340 nm exceeds 0.1 AU and/or it is visibly turbid or contains particles) | Solubility, Condition 2 [2]: − (“−” denotes lack of solubility at the given condition, as UV absorbance at 340 nm exceeds 0.1 AU and/or it is visibly turbid or contains particles) | Solubility, Condition 3 [2]: + (“+” denotes solubility at the given condition, as determined by UV absorbance being less than 0.1 AU at 340 nm and the sample being clear when manually inspected) | Solubility, Condition 4 [2]: + (“+” denotes solubility at the given condition, as determined by UV absorbance being less than 0.1 AU at 340 nm and the sample being clear when manually inspected) | Solubility, Condition 5 [2]: + (“+” denotes solubility at the given condition, as determined by UV absorbance being less than 0.1 AU at 340 nm and the sample being clear when manually inspected)

CC[C@H](C)[C@@H]1NC(=O)[C@@H](NC(=O)[C@H](Cc2ccccc2)NC(=O)[C@H](CCC(=O)O)NC(=O)[C@H](CO)NC(C)=O)CSSC[C@@H](C(=O)N(C)CC(=O)N[C@@H](CCC(=O)O)C(N)=O)NC(=O)[C@H](CCCNC(=N)N)NC(=O)[C@H](Cc2c[nH]cn2)NC(=O)[C@H](CCC(=O)O)NC(=O)CNC(=O)[C@H](Cc2c[nH]c3ccccc23)NC(=O)[C@H](CC(=O)O)NC(=O)[C@H](CCC(N)=O)NC(=O)[C@H](Cc2cn(C)c3ccccc23)NC1=O [Compound 78] (Ac-SEFCI[Trp(1-Me)]QDWGEHRC[Sar]E-NH2; disulfide 4-14)
IC50 [1]: < 100 nM | Solubility, Condition 1 [2]: − (“−” denotes lack of solubility at the given condition, as UV absorbance at 340 nm exceeds 0.1 AU and/or it is visibly turbid or contains particles) | Solubility, Condition 2 [2]: − (“−” denotes lack of solubility at the given condition, as UV absorbance at 340 nm exceeds 0.1 AU and/or it is visibly turbid or contains particles) | Solubility, Condition 3 [2]: + (“+” denotes solubility at the given condition, as determined by UV absorbance being less than 0.1 AU at 340 nm and the sample being clear when manually inspected) | Solubility, Condition 4 [2]: + (“+” denotes solubility at the given condition, as determined by UV absorbance being less than 0.1 AU at 340 nm and the sample being clear when manually inspected) | Solubility, Condition 5 [2]: + (“+” denotes solubility at the given condition, as determined by UV absorbance being less than 0.1 AU at 340 nm and the sample being clear when manually inspected)

CC[C@H](C)[C@@H]1NC(=O)[C@@H](NC(=O)[C@H](Cc2ccc(O)cc2)NC(C)=O)CSSC[C@@H](C(=O)N[C@H](C(=O)NCC(=O)N[C@@H](C)C(=O)N[C@@H](CCC(=O)O)C(=O)N[C@@H](CO)C(N)=O)[C@@H](C)O)NC(=O)[C@H](CCCNC(=N)N)NC(=O)[C@H](Cc2c[nH]cn2)NC(=O)[C@H](CCC(=O)O)NC(=O)CNC(=O)[C@H](Cc2c[nH]c3ccccc23)NC(=O)[C@H](CC(=O)O)NC(=O)[C@H](CCC(N)=O)NC(=O)[C@H](Cc2cn(C)c3ccccc23)NC1=O [Compound 62] (Ac-YCI[Trp(1-Me)]QDWGEHRCTGAES-NH2; disulfide 2-12)
IC50 [1]: < 100 nM | Solubility, Condition 1 [2]: − (“−” denotes lack of solubility at the given condition, as UV absorbance at 340 nm exceeds 0.1 AU and/or it is visibly turbid or contains particles) | Solubility, Condition 2 [2]: − (“−” denotes lack of solubility at the given condition, as UV absorbance at 340 nm exceeds 0.1 AU and/or it is visibly turbid or contains particles) | Solubility, Condition 3 [2]: + (“+” denotes solubility at the given condition, as determined by UV absorbance being less than 0.1 AU at 340 nm and the sample being clear when manually inspected) | Solubility, Condition 4 [2]: + (“+” denotes solubility at the given condition, as determined by UV absorbance being less than 0.1 AU at 340 nm and the sample being clear when manually inspected) | Solubility, Condition 5 [2]: + (“+” denotes solubility at the given condition, as determined by UV absorbance being less than 0.1 AU at 340 nm and the sample being clear when manually inspected)

CC[C@H](C)[C@@H]1NC(=O)[C@@H](NC(=O)[C@H](Cc2ccc(O)cc2)NC(=O)[C@H](C)NC(=O)[C@H](CO)NC(=O)CNC(=O)[C@H](CCC(=O)O)NC(C)=O)CSSC[C@@H](C(=O)N(C)CC(=O)N[C@@H](CCC(=O)O)C(=O)NCC(=O)N[C@@H](CCC(=O)O)C(=O)N[C@@H](CCCCNC(=O)CC[C@H](NC(=O)CNC(=O)CC[C@H](NC(=O)CCCCCCCCCCCCCCCCC(=O)O)C(=O)O)C(=O)O)C(N)=O)NC(=O)[C@H](CCCNC(=N)N)NC(=O)[C@H](Cc2c[nH]cn2)NC(=O)[C@H](CCC(=O)O)NC(=O)CNC(=O)[C@H](Cc2c[nH]c3ccccc23)NC(=O)[C@H](CC(=O)O)NC(=O)[C@H](CCC(N)=O)NC(=O)[C@H](Cc2cn(C)c3ccccc23)NC1=O [Compound 109] (Ac-EGSAYCI[Trp(1-Me)]QDWGEHRC[Sar]EGEK([γGlu-Gly-γGlu-C18 diacid])-NH2; disulfide 6-16)
IC50 [1]: < 250 nM | Solubility, Condition 1 [2]: − (“−” denotes lack of solubility at the given condition, as UV absorbance at 340 nm exceeds 0.1 AU and/or it is visibly turbid or contains particles) | Solubility, Condition 2 [2]: + (“+” denotes solubility at the given condition, as determined by UV absorbance being less than 0.1 AU at 340 nm and the sample being clear when manually inspected) | Solubility, Condition 3 [2]: + (“+” denotes solubility at the given condition, as determined by UV absorbance being less than 0.1 AU at 340 nm and the sample being clear when manually inspected) | Solubility, Condition 4 [2]: + (“+” denotes solubility at the given condition, as determined by UV absorbance being less than 0.1 AU at 340 nm and the sample being clear when manually inspected) | Solubility, Condition 5 [2]: + (“+” denotes solubility at the given condition, as determined by UV absorbance being less than 0.1 AU at 340 nm and the sample being clear when manually inspected)

Source: patent publication US11965039B2, “Compstatin analogues and their medical uses” (priority 2018, dated 2024)
